This is an account of results in ChEMBL document CHEMBL3352458, “Discovery of dual death-associated protein related apoptosis inducing protein kinase 1 and 2 inhibitors by a scaffold hopping approach” (J Med Chem, 2014).

The target in assay [1] is T1, Serine/threonine-protein kinase 17B (Homo sapiens, UniProt O94768).
T1 sequence (O94768 whole entry): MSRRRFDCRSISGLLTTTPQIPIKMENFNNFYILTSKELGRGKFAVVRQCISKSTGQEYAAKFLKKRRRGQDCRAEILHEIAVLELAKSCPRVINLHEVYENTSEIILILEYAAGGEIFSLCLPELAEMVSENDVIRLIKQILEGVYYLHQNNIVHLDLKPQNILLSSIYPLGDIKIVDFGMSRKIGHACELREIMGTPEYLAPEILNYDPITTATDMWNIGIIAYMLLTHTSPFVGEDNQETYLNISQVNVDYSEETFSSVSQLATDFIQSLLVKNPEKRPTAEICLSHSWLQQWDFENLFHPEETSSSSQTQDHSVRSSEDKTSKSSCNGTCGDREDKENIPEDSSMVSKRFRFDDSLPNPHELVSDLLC
The assay can be described thus: Binding affinity to DRAK2 (unknown origin) ATP site.

Assay [2] deals with T1, Serine/threonine-protein kinase 17B. The assay is described as follows: Inhibition of DRAK2 (unknown origin) using 33P-ATP after 30 mins by Trilux scintillation counting.
Assay [3] shares this target. The assay can be described thus: Inhibition of DRAK2 (unknown origin) using 250 uM ATP by biochemical assay.
Assay [4] shares this target. The assay can be described thus: Inhibition of DRAK2 (unknown origin) using 25 uM ATP by biochemical assay.
The target is the same in assay [5]. The assay can be described thus: Inhibition of DRAK2 (unknown origin) using 500 uM ATP by biochemical assay.
For assay [6] the target is unchanged. The assay can be described thus: Inhibition of DRAK2 (unknown origin) using 50 uM ATP by biochemical assay.
For assay [7] the target is unchanged. The assay can be described thus: Inhibition of DRAK2 (unknown origin) using 100 uM ATP by biochemical assay.
For assay [8] the target is unchanged. The assay can be described thus: Inhibition of DRAK2 (unknown origin) using 1 uM ATP by biochemical assay.
Assay [9] has the same target. The assay can be described thus: Inhibition of DRAK2 (unknown origin) using 10 uM ATP by biochemical assay.
For assay [10] the target is unchanged. The assay can be described thus: Inhibition of DRAK2 (unknown origin) using 5 uM ATP by biochemical assay.

Each structure is given as a SMILES string.

As to `COc1ccc(-c2cnc3snc(NC(=O)C4CCCCCC4)c3c2)cc1OC`, the Kd in [1] was found to be 530 nM.

Compound `O=C(Nc1nsc2ncc(-c3ccc(O)cc3)cc12)C1CCCCC1` showed a Kd in [1] of 3200 nM.

The compound `COc1ccc(-c2cnc3snc(NC(=O)C4CCCC4)c3c2)cc1OC` yielded a Kd in assay [1] of 2200 nM.

For the compound `O=C(Nc1nsc2ncc(-c3ccsc3)cc12)C1CCCCC1`, the Kd in assay [1] amounted to 1600 nM.

As for `COc1ccc(-c2cnc3ncnc(NC(=O)C4CCCCC4)c3n2)cc1OC`, the Kd in assay [1] worked out at 180 nM.

For `COc1ccc(-c2cnc3snc(NC(=O)C4CCNCC4)c3c2)cc1OC`, binding in assay [1] was put at a Kd of 7200 nM.

Compound `COc1ccc(-c2cnc3snc(NC(=O)C4CCC4)c3c2)cc1OC` registered a Kd in [1] of 1600 nM.

In turn, `COc1ccc(-c2ccc3scc(NC(=O)C4CCCCC4)c3c2)cc1OC` yielded an equilibrium dissociation constant (Kd) in assay [1] of 510 nM.

`Nc1cccc(-c2cnc3snc(NC(=O)C4CCCCC4)c3c2)c1` showed a Kd in assay [1] of 2300 nM.

For `COc1ccc(-c2cnc3scc(NC(=O)C4CCCCC4)c3n2)cc1OC`, the Kd in assay [1] was determined as 27 nM. This compound also showed a half-maximal inhibitory concentration (IC50) in assay [2] of 1780 nM.

Take `COc1ccc(-c2cnc3[nH]cc(NC(=O)C4CCCCC4)c3c2)cc1OC`: binding in [1] was put at a Kd of 33 nM.

For the compound `COc1ccc(-c2ccc3onc(NC(=O)C4CCCCC4)c3c2)cc1OC`, in assay [1], the Kd came to 960 nM.

In [1], `COc1ccc(-c2cnc3scc(NC(=O)C4CCCCC4)c3c2)cc1OC` yielded a Kd of 9 nM. Besides, the 50% inhibitory concentration (IC50) stood at 860 nM in [2]; 1470 nM in assay [3]; 650 nM in [4]; 2220 nM in assay [5]; 720 nM in [6]; 990 nM in assay [7]. In addition, the results for the IC50 in [8], in [9] and in [10] were 370 nM, 530 nM and 510 nM, respectively.

Turning to `COc1cc(-c2cnc3snc(NC(=O)C4CCCCC4)c3c2)ccc1O`, the affinity in assay [1], expressed as Kd, was 2000 nM.

The compound `O=C(Nc1nsc2ncc(-c3cccs3)cc12)C1CCCCC1` returned an equilibrium dissociation constant (Kd) in [1] of 1900 nM.

On to `COc1ccc(-c2cnc3snc(NC(=O)C4CCCCC4)c3c2)cc1OC`, for which the Kd in assay [1] is 1600 nM.

In assay [1], `COc1ccc(-c2ccc3snc(NC(=O)C4CCCCC4)c3c2)cc1OC` displayed a dissociation constant (Kd) of 2700 nM.

In [1], `COc1cc(-c2cnc3snc(NC(=O)C4CCCCC4)c3c2)ccc1N` had a Kd of 660 nM.
